The results in this text go back to patent publication US20240109885A1, “2,3-DIHYDRO-1H-PYRROLO[3,2-B]PYRIDINE DERIVATIVE, PREPARATION METHOD THEREFOR, AND APPLICATION THEREOF” (Abbisko Therapeutics Co., Ltd, priority 2020, published 2024).

What all share (assay type): cell-based
One assay deals with A431 (EGFR-WT). Description: Cell proliferation assay (CellTiter-Glo), A431 cells. The note with it: Homo sapiens, A-431, 72 hrs, CTG assay, * = average of multiple measurements. On the procedure:
(§1) I. Cell proliferation assay (i) Reagents and consumables • Fetal bovine serum (FBS) (GBICO, Cat #10099-141); • CellTiter-Glo® Luminescent Cell Viability Assay Kit (Promega, Cat #G7572); • Black transparent flat-bottomed 96-well plate (Corning®, Cat #3603).
(§2) • SpectraMax Multi-Label Microplate Detector MD, 2104-0010A; • CO2 incubator, Thermo Scientific 3100 Series; • Biosafety cabinet, Thermo Scientific, 1300 Series type A2; • Inverted microscope, Olympus, CKX41SF; • Siemens refrigerator KK25E76TI. (iii) Cell lines and culture conditions
(§3) (iv) Experimental procedures 1. Cell culture and seeding: • (1) Cells in the logarithmic growth phase were harvested, and counted using a platelet counter. Cell viability was detected by the trypan blue exclusion assay to ensure that the cell viability was above 90%. • (2) The cell concentration was adjusted to achieve the final density; and 90 μL of the cell suspension was added to the 96-well plate. • (3) The cells were incubated in the 96-well plate overnight at 37° C. in the presence of 5% CO2 with 95% humidity. 2. TO benchmark data: • (1) 10 μL of PBS was added to each well of the TO flat plate containing the cells. • (2) The CTG reagent was thawed, and the cell plate was equilibrated to room temperature for 30 min. • (3) An equal volume of CTG solution was added to each well. • (4) The cells were shaken for 5 min on an orbital shaker for lysis. • (5) The cell plate was left at room temperature for 20 min to stabilize luminescent signals. • (6) The values of TO luminescent signals were read. 3. Compound dilution and addition • (1) According to the compound information table, a corresponding volume of DMSO was added to the corresponding compound powder to prepare a 10 mM stock solution. • (2) Compound solutions diluted at 1000 fold and 3.16 fold were prepared. • (3) The compound solution diluted at 1000 fold was diluted at 100 fold with PBS, to prepare the compound solutions at 10 fold in 9 concentrations, with the maximum concentration of […]; and the compound solution was diluted at 3.16 fold. 10 μL of medicament solution was added to each well of the seeded 96-well plate. Three replicate wells were provided for each concentration of the compound, and the final concentration of DMSO was 0.1%. • (4) Cells were placed in the 96-well plate containing the medicament and subsequently cultured for 72 hrs at 37° C. in the presence of 5% CO2 with 95% humidity, and then, CTG assay was conducted. 4. Reading of luminescent signals • (1) The CTG reagent was thawed, and the cell plate was equilibrated to room temperature for 30 min. • (2) An equal volume of CTG solution was added to each well. • (3) The cells were shaken for 5 min on an orbital shaker for lysis.
(§4) (4) The cell plate was left at room temperature for 20 min to stabilize the luminescent signals. • (5) Luminescent values were read. Data processing
(§5) The data were analyzed using software GraphPad Prism 7.0, and fitted by the nonlinear S-curve regression to obtain a dose-effect curve, based on which the IC50 value (unit: nM) was calculated, with the specific test results shown in Table 1.
(§6) Cell viability (%)=(Lum test medicament-Lum culture medium control)/(Lum cell control-Lum culture medium control)×100%.
(Cellular ATP, detected with luciferase, serves as a proxy for viable cell number.)

For assay [1], the target named is Ba/F3 EGFR-D770-N771ins_SVD (Homo sapiens, UniProt P00533, DUP768-770, cells depend on it). In words: Cell proliferation assay (CellTiter-Glo), Ba/F3 EGFR-D770-N771ins_SVD cells. The note with it: 72 hrs, CTG assay, * = average of multiple measurements, read-out: Ba/F3 EGFR-D770-N771ins_SVD (nM), IC50 of cell proliferation. The procedure: as §1, §2, §3, §4, §5, §6
Ba/F3 EGFR-D770-N771ins_SVD, sequence (P00533 with tags, fused parts or gaps DUP768-770): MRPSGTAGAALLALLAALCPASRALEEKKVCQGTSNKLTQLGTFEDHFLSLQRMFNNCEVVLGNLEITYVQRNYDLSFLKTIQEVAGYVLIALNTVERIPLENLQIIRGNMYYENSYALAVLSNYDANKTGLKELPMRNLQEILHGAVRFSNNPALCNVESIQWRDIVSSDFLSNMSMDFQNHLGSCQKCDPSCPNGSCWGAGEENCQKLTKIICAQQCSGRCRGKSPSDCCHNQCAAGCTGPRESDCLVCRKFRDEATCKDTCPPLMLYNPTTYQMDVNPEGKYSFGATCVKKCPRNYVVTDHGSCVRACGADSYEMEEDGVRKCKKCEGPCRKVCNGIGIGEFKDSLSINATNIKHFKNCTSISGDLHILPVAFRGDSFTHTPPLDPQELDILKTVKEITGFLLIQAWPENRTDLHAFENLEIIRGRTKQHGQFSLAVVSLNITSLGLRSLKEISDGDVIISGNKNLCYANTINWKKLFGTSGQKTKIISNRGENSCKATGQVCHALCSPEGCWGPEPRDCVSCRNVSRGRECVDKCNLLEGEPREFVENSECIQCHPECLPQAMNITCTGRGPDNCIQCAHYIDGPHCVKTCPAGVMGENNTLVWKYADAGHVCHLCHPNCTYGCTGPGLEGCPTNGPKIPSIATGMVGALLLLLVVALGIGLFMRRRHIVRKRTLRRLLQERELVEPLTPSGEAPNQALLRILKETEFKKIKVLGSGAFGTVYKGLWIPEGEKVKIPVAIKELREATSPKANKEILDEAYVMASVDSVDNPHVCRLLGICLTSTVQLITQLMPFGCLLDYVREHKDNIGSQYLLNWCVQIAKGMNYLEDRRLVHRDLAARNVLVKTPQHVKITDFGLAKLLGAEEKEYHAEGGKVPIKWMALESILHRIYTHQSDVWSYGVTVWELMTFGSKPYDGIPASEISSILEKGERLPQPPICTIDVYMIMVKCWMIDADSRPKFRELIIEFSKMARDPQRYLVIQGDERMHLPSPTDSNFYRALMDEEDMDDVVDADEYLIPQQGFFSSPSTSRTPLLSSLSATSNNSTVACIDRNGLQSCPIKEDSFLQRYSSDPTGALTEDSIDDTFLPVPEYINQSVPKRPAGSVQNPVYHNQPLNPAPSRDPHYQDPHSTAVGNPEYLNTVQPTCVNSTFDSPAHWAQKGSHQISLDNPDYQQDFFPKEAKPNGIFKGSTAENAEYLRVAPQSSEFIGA

The target of assay [2] is Ba/F3 EGFR-V769_D770insASV (Homo sapiens, UniProt P00533, DUP767-769, cells depend on it). Description: Cell proliferation assay (CellTiter-Glo), Ba/F3 EGFR-V769_D770insASV cells. To be noted: 72 hrs, CTG assay, * = average of multiple measurements, read-out: Ba/F3 EGFR-V769_D770insASV (nM), IC50 of cell proliferation. The procedure:
as §1, §2, §3, §4, §5, §6

Ba/F3 EGFR-V769_D770insASV, sequence (P00533 with tags, fused parts or gaps DUP767-769): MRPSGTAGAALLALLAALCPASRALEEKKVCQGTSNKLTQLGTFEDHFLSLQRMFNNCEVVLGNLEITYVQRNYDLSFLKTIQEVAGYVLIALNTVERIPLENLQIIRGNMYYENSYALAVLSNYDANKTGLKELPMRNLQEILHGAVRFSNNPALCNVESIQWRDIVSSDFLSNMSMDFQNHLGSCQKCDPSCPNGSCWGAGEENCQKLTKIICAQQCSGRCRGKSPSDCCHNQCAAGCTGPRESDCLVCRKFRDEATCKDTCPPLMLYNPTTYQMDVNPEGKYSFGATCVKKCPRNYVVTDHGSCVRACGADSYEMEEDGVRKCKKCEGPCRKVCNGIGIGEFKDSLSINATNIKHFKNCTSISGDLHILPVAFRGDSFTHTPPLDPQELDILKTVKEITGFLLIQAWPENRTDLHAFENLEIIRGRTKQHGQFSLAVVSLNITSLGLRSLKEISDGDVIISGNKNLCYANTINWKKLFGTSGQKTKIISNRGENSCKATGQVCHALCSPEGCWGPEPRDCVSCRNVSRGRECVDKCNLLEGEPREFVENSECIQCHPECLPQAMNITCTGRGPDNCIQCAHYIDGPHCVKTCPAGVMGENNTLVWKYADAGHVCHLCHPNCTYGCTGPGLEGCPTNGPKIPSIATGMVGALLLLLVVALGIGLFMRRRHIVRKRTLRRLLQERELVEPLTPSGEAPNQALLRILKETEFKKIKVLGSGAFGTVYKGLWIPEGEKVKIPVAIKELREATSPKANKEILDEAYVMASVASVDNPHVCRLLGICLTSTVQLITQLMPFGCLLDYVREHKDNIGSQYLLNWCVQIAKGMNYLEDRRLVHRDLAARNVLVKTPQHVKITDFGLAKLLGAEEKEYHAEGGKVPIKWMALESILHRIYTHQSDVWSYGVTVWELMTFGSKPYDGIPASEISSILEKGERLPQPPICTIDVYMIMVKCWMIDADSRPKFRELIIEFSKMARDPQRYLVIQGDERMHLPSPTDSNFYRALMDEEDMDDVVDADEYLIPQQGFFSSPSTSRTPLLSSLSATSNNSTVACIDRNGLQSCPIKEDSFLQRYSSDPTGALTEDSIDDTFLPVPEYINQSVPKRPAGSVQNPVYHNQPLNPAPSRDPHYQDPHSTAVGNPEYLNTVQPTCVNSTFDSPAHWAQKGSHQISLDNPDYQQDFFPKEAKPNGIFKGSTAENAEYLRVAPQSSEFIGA

Regarding `C=CC(=O)Nc1cc(Nc2nccc(N3CC4(CCCC4)c4nc(C)ccc43)n2)c(OC)cc1N(C)CCN(C)C` [Example 33, N-(2-((2-(dimethylamino)ethyl) (methyl)amino)-4-methoxy-5-((4-(5′-methylspiro[cyclopentane-1,3′-pyrrolo[3,2-b]pyridin]-1′(2′H)-yl)pyrimidin-2-yl)amino)phenyl)acrylamide], in the assay with A431 (EGFR-WT), half-maximal inhibition (IC50) required 264 nM. The figures for the GI50 in assay [1] and in assay [2] were 35.5 nM and 84.3 nM, respectively.

For `C=CC(=O)Nc1cc(Nc2nccc(N3CC(C)(C)c4ncc(-c5ccccc5F)cc43)n2)c(OC)cc1N(C)CCN(C)C` [Example 19, N-(2-((2-(dimethylamino)ethyl) (methyl)amino)-5-((4-(6-(2-fluoro-phenyl)-3,3-dimethyl-2,3-dihydro-1H-pyrrolo[3,2-b]pyridin-1-yl)pyrimidin-2-yl)amino)-4-methoxy-phenyl)acrylamide], the GI50 in assay [1] worked out at 41.6 nM; in assay [2] it was 142 nM.

Consider `C=CC(=O)Nc1cc(Nc2nccc(N3CC4(CCC4)c4ncccc43)n2)c(OC)cc1N(C)CCN(C)C` [Example 63, N-(2-((2-(dimethylamino)ethyl) (methyl)amino)-4-methoxy-5-((4-(spiro[cyclobutane-1,3′-pyrrolo [3,2-b]pyridin]-1′(2′H)-yl)pyrimidin-2-yl)amino)phenyl)acrylamide], for which half-maximal inhibition in the assay with A431 (EGFR-WT) (IC50) was put at 532 nM. For the same compound, the values for the GI50 in assay [1] and in assay [2] were 39.6 nM and 116 nM, respectively.

On to `C=CC(=O)Nc1cc(Nc2nccc(N3CC(C)(C)c4nc5c(cc43)CCC5)n2)c(OC)cc1N(C)CCN(C)C` [Example 23, N-(5-((4-(3,3-dimethyl-3,5,6,7-tetrahydrocyclopenta[b]pyrrolo[2,3-e]pyridin-1(2H)-yl)pyrimidin-2-yl)amino)-2-((2-(dimethylamino)ethyl)(methyl)amino)-4-methoxy-phenyl)acrylamide], for which the GI50 in assay [1] came out at 13.8 nM; in assay [2], 26.6 nM.

`C=CC(=O)Nc1cc(Nc2nccc(N3CC(C)(C)c4nc(C)ccc43)n2)c(OC(C)C)cc1N(C)CCN(C)C` [Example 38, N-(2-((2-(dimethylamino)ethyl) (methyl)amino)-4-isopropoxy-5-((4-(3,3,5-trimethyl-2,3-dihydro-1H-pyrrolo[3,2-b]pyridin-1-yl)pyrimidin-2-yl)amino)phenyl)acrylamide]: the GI50 in assay [1] turned out to be 124 nM; in assay [2], 266 nM.

Turning to `C=CC(=O)Nc1cc(Nc2ncnc(N3CC(C)(C)c4nc(C)ccc43)n2)c(OC(C)C)cc1N(C)CCN(C)C` [Example 37, N-(2-((2-(dimethylamino)ethyl) (methyl)amino)-4-isopropoxy-5-((4-(3,3,5-trimethyl-2,3-dihydro-1H-pyrrolo[3,2-b]pyridin-1-yl)-1,3,5-triazin-2-yl)amino)phenyl)acrylamide], the GI50 in assay [1] worked out at 92.2 nM; in assay [2], 159 nM.

`C=CC(=O)Nc1cc(Nc2nccc(N3CC(C)(C)c4nc(-n5cncc5C)ccc43)n2)c(OC)cc1N(C)CCN(C)C` [Example 59, N-(5-((4-(3,3-dimethyl-5-(5-methyl-1H-imidazole-1-yl)-2,3-dihydro-1H-pyrrolo[3,2-b]pyridin-1-yl)pyrimidin-2-yl)amino)-2-((2-(dimethylamino)ethyl)(methyl)amino)-4-methoxyphenyl)acrylamide]: the GI50 in assay [1] amounted to 43.8 nM; in assay [2], 139 nM.

For `COc1cc(N(C)CCN(C)C)c(N)cc1Nc1nccc(N2CC(C)(C)c3ncc(-c4c(F)cccc4F)cc32)n1` [Example 18, N^4-(4-(6-(2,6-difluorophenyl)-3,3-dimethyl-2,3-dihydro-1H-pyrrolo [3,2-b]pyridin-1-yl)pyrimidin-2-yl)-N^1-(2-(dimethylamino)ethyl)-5-methoxy-N^1-methylbenzene-1,2,4-triamine], the GI50 in assay [1] was 60 nM; in assay [2] it was 142 nM.

As for `C=CC(=O)Nc1cc(Nc2cc(N3CC(C)(C)c4nc(C)c(C)cc43)ncn2)c(OCC)cc1N(C)CCN(C)C` [Example 35, N-(2-((2-(dimethylamino)ethyl) (methyl)amino)-4-ethoxy-5-((6-(3,3,5,6-tetramethyl-2,3-dihydro-1H-pyrrolo[3,2-b]pyridin-1-yl)pyrimidin-4-yl)amino)phenyl)acrylamide], the results for the GI50 in assay [1] and in assay [2] were 40.1 nM and 94.8 nM, respectively.

As to `C=CC(=O)Nc1cc(Nc2cc(N3CC(C)(C)c4nc5c(cc43)CCC5)ncn2)c(OC)cc1N(C)CCN(C)C` [Example 26, N-(5-((6-(3,3-dimethyl-3,5,6,7-tetrahydrocyclopenta[b]pyrrolo[2,3-e]pyridin-1(2H)-yl)pyrimidin-4-yl)amino)-2-((2-(dimethylamino)ethyl)(methyl)amino)-4-methoxy-phenyl)acrylamide], the GI50 in assay [1] was 22.9 nM; in assay [2], 76.1 nM.

As to `C=CC(=O)Nc1cc(Nc2nccc(N3CC4(CCCCC4)c4nc(C)ccc43)n2)c(OC(F)F)cc1N(C)CCN(C)C` [Example 36, N-(4-(difluoromethoxy)-2-((2-(dimethylamino)ethyl)(methyl)amino)-5-((4-(5′-methylspiro[cyclohexane-1,3′-pyrrolo[3,2-b]pyridin]-1′(2′H)-yl)pyrimidin-2-yl)amino)phenyl)acrylamide], the values for the GI50 in assay [1] and in assay [2] were 33.2 nM and 51.5 nM, respectively.

Consider `C=CC(=O)Nc1cc(Nc2nccc(N3CC(C)(C)c4nc(C)c(C)cc43)n2)c(OCC)cc1N(C)CCN(C)C` [Example 27], for which the figures for the GI50 in assay [1] and in assay [2] were 31.5 nM and 68.8 nM, respectively.

Regarding `C=CC(=O)Nc1cc(Nc2ncnc(N3CC(C)(C)c4nc(C)ccc43)n2)c(OCC)cc1N(C)CCN(C)C` [Example 25, N-(2-((2-(dimethylamino)ethyl) (methyl)amino)-4-ethoxy-5-((4-(3,3,5-trimethyl-2,3-dihydro-1H-pyrrolo[3,2-b]pyridin-1-yl)-1,3,5-triazin-2-yl)amino)phenyl)acrylamide], the GI50 turned out to be 56.5 nM in assay [1] and 106 nM in assay [2].

For `C=CC(=O)Nc1cc(Nc2nccc(N3CC4(CCCC4)c4nc(C)ccc43)n2)c(OCC(F)(F)F)nc1N(C)CCN(C)C` [Example 49, N-(2-((2-(dimethylamino)ethyl) (methyl)amino)-5-((4-(5′-methyl-spiro[cyclopentane-1,3′-pyrrolo[3,2-b]pyridin]-1′(2′H)-yl)pyrimidin-2-yl)amino)-6-(2,2,2-trifluoroethoxy)pyridin-3-yl)acrylamide], in the assay on A431 (EGFR-WT), the IC50 (as a rule, the concentration that gives 50% inhibition) came to 1020 nM. Also, the GI50 in assay [1] came to 25.2 nM.

`C=CC(=O)Nc1cc(Nc2nccc(N3CC(C)(C)c4nc(-c5cn[nH]c5)ccc43)n2)c(OC)cc1N(C)CCN(C)C` [Example 58, N-(5-((4-(3,3-dimethyl-5-(1H-pyrazol-4-yl)-2,3-dihydro-1H-pyrrolo[3,2-b]pyridin-1-yl)pyrimidin-2-yl)amino)-2-((2-(dimethylamino)ethyl)(methyl)amino)-4-methoxyphenyl)acrylamide]: in assay [1], the GI50 stood at 68.2 nM.

Regarding `C=CC(=O)Nc1cc(Nc2ncnc(N3CC4(CCN(C)C4)c4nc(C)ccc43)n2)c(OC)cc1N(C)CCN(C)C` (centres unmarked) [Example 72, N-(2-((2-(dimethylamino)ethyl) (methyl)amino)-5-((4-(1,5′-dimethyl-spiro[pyrrolidin-3,3′-pyrrolo[3,2-b]pyridin]-1′(2′H)-yl)-1,3,5-triazin-2-yl)amino)-4-methoxyphenyl) acrylamide], the GI50 in assay [1] turned out to be 298 nM.
